According to patent US11806342B2, “Diiodohydroxyquinoline for the treatment of clostridium difficile infection” (Purdue Research Foundation, priority 2019, dated 2023):
Counter-ions that a name gives are not always drawn. Like-named read-outs stand apart in the source and are kept apart here.

What was measured:
C. difficile ATCC 43255 = assay: Initial screening of antiparasitic drugs, broth microdilution MIC; assay type: cell-based, Clostridium difficile
Description: (§1) C. difficile strains were grown anaerobically on brain heart infusion supplemented (BHIS) agar plates at 37° C. for 48 hours. Afterwards, a bacterial solution equivalent to 0.5 McFarland standard was prepared and diluted in (BHIS) broth to achieve a bacterial concentration of about 5×10^5 CFU/mL. Drugs were added and serially diluted along the plates. Plates were then, incubated anaerobically at 37° C. for 48 hours. MICs reported in Table (1) are the minimum concentrations of the drugs that could completely suppress the visual growth of bacteria.

[1] = system: C. difficile ATCC BAA-1870; assay: as above; assay type: cell-based, Clostridium difficile
Description: as §1

[2] = Clostridioides difficile, ATCC43255
[3] = Clostridioides difficile, ATCC43255, initial screening, C. difficile ATCC 43255, read-out: MIC
[4] = Clostridioides difficile, initial screening, C. difficile ATCC BAA 1870, read-out: MIC

Row | Structure (SMILES) | MIC (C. difficile ATCC 43255; [3]) [µg/mL] | MIC [1, 4] [µg/mL] | also measured
1 | CCCSc1ccc2nc(NC(=O)OC)[nH]c2c1 [Albendazole, albendazole] | – | – | MIC (C. difficile ATCC 43255; [2]): > 128 µg/mL; MIC ([1]; Clostridioides difficile): > 128 µg/mL
2 | CC(C)OC(=O)Nc1ccc2nc(-c3cscn3)[nH]c2c1 [Cambendazole, cambendazole] | – | – | MIC (C. difficile ATCC 43255; initial screening, C. difficile ATCC 43255): >128 µg/mL; MIC ([1]; initial screening, C. difficile ATCC BAA 1870): >128 µg/mL
3 | COC(=O)Nc1nc2ccc(C(=O)c3ccccc3)cc2[nH]1 [Mebendazole, mebendazole] | > 128 | > 128 | –
4 | NC[C@@H]1O[C@H](O[C@H]2[C@@H](O)[C@H](O[C@@H]3[C@@H](O)[C@H](N)C[C@H](N)[C@H]3O[C@H]3O[C@H](CO)[C@@H](O)[C@H](O)[C@H]3N)O[C@@H]2CO)[C@H](N)[C@@H](O)[C@@H]1O [Paromomycin, paromomycin sulfate] | > 128 | > 128 | –
5 | O=C(C1CCCCC1)N1CC(=O)N2CCc3ccccc3C2C1 (stereo not drawn) [Praziquantel, praziquantel] | > 128 | > 128 | –
6 | CN1CCCN=C1/C=C/c1cccs1 [Pyrantel Pamoate, pyrantel pamoate] | > 128 | > 128 | –
7 | CCc1nc(N)nc(N)c1-c1ccc(Cl)cc1 [Pyrimethamine, pyrimethamine] | > 128 | > 128 | –
8 | CCC[S+]([O-])c1ccc2[nH]c(NC(=O)OC)nc2c1 (stereo not drawn) [Ricobendazole, ricobendazole] | – | – | MIC (C. difficile ATCC 43255; [2]): > 128 µg/mL; MIC ([1]; Clostridioides difficile): > 128 µg/mL
9 | c1ccc2[nH]c(-c3cscn3)nc2c1 [Thiabendazole, thiabendazole] | > 128 | > 128 | –
